Source: US20260258032A1, “TYROSINE KINASE 2 INHIBITORS AND USES THEREOF” (BIOGEN MA INC., priority 2022, published 2026)
Structures can show the parent of a compound that is named as a salt.

Columns and labels:
[1] = test system: Tyk2 kinase activity on STAT4; assay: pSTAT4 cell assay (MSD, NK92 cells); type: cell-based; details: compounds 1 hr, stimulated 15 minutes
Summary of the method: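 Serum-starved NK92 cells were preincubated 1 hr with compound (10-point, four-fold dilutions from 10 μM), then stimulated with 30 ng/mL IL2 for 15 minutes. Lysates were read on an MSD plate assay using anti-STAT4 antibodies, and IC50 came from a 4-parameter logistic fit of normalized percent activity.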

JH2 domain of human Tyk2 = target: T1, JH2 domain of human Tyk2 (Homo sapiens, UniProt P29597); assay: JH2 biochemical assay (TR-FRET probe displacement); type: binding; details: JH2 biochemical assay
T1 construct: 10×His-tagged TYK2 JH2 domain (amino acid 575-876)
Summary of the method: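 10×His-tagged human TYK2 JH2 (aa 575-876, 2 nM) incubated 60 min with 2 nM fluorescent probe, 0.1 nM Tb anti-His antibody and compound (10-point 3-fold series from […] top). TR-FRET 520/495 nm ratio, falling with probe displacement, normalized and fitted to a 4-parameter logistic for IC50.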

T1 sequence (P29597 575-876): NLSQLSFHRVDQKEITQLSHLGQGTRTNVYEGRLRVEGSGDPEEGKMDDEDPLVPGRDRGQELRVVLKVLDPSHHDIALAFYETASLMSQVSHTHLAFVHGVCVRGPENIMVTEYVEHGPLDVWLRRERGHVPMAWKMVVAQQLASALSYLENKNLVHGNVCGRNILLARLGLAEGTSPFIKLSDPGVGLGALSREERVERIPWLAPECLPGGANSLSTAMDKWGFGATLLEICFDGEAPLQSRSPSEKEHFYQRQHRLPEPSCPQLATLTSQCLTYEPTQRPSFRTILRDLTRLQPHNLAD

| Compound | IC50 [1] [nM] | IC50 (JH2 domain of human Tyk2) [nM] |
| --- | --- | --- |
| CC(=O)Nc1cc2c(cn1)C1(CC1)CN2c1cc(C)nc(N2CCCC2)n1 [Example 114, N-(1′-(6-methyl-2-(pyrrolidin-1-yl)pyrimidin-4-yl)-1′,2′-dihydrospiro[cyclopropane-1,3′-pyrrolo[3,2-c]pyridin]-6′-yl)acetamide] | 100 to 1000 | 10 to 100 |
| CC(=O)Nc1cc2c(cn1)C1(CC1)CN2c1cc(C)nc(C2CCS(=O)(=O)C2)n1 (stereo not shown) [Example 98, N-(1′-(2-(1,1-dioxidotetrahydrothiophen-3-yl)-6-methylpyrimidin-4-yl)-1′,2′-dihydrospiro[cyclopropane-1,3′-pyrrolo[3,2-c]pyridin]-6′-yl)acetamide] | ≥ 1000 | 10 to 100 |
| CC(=O)Nc1cc2c(cn1)C1(CC1)CN2c1cc(C2=COCC2)nc(C(C)(F)F)n1 [Example 296, N-(1′-(2-(1,1-difluoroethyl)-6-(4,5-dihydrofuran-3-yl)pyrimidin-4-yl)-1′,2′-dihydrospiro[cyclopropane-1,3′-pyrrolo[3,2-c]pyridin]-6′-yl)acetamide trifluoroacetate] | 100 to 1000 | ≤ 10 |
| COC1(c2nc(C)cc(N3CC4(CC4)c4cnc(NC(C)=O)cc43)n2)CCC1 [Example 104, N-(1′-(2-(1-methoxycyclobutyl)-6-methylpyrimidin-4-yl)-1′,2′-dihydrospiro[cyclopropane-1,3′-pyrrolo[3,2-c]pyridin]-6′-yl)acetamide] | 100 to 1000 | ≤ 10 |
| CC(=O)Nc1cc2c(cn1)C1(CC1)CN2c1cc(C)nc(C(C)S(C)(=O)=O)n1 (stereo not shown) [Example 97, N-(1′-(6-methyl-2-(1-(methylsulfonyl)ethyl)pyrimidin-4-yl)-1′,2′-dihydrospiro[cyclopropane-1,3′-pyrrolo[3,2-c]pyridin]-6′-yl)acetamide] | 100 to 1000 | ≤ 10 |
| CC(=O)Nc1cc2c(cn1)C1(CC1)CN2c1cc(C)nc(N2CC(C#N)C2)n1 [Example 216, N-(1′-(2-(3-cyanoazetidin-1-yl)-6-methylpyrimidin-4-yl)-1′,2′-dihydrospiro[cyclopropane-1,3′-pyrrolo[3,2-c]pyridin]-6′-yl)acetamide] | 100 to 1000 | 10 to 100 |
| CC(=O)Nc1cc2c(cn1)C1(CC1)CN2c1cc(C(C)(F)F)ncn1 [Example 280, N-(1′-(6-(1,1-difluoroethyl)pyrimidin-4-yl)-1′,2′-dihydrospiro[cyclopropane-1,3′-pyrrolo[3,2-c]pyridin]-6′-yl)acetamide] | ≥ 1000 | 100 to 1000 |
| CC(=O)Nc1cc2c(cn1)C1(CC1)CN2c1cc(C)cc(OC2CC(F)C2)n1 (stereo not shown) [Example 348, N-(1′-(6-(3-fluorocyclobutoxy)-4-methylpyridin-2-yl)-1′,2′-dihydrospiro[cyclopropane-1,3′-pyrrolo[3,2-c]pyridin]-6′-yl)acetamide trifluoroacetate] | ≥ 1000 | 100 to 1000 |
| CC(=O)Nc1cc2c(cn1)C1(CC1)CN2c1cc(C)cc(OC2COC2)n1 [Example 341, N-(1′-(4-methyl-6-(oxetan-3-yloxy)pyridin-2-yl)-1′,2′-dihydrospiro[cyclopropane-1,3′-pyrrolo[3,2-c]pyridin]-6′-yl)acetamide trifluoroacetate] | ≥ 1000 | ≥ 1000 |
| CC(=O)Nc1cc2c(cn1)C1(CC1)CN2c1cc(C(C)O)nc(C(C)(F)F)n1 (stereo not shown) [Example 293, N-(1′-(2-(1,1-difluoroethyl)-6-(1-hydroxyethyl)pyrimidin-4-yl)-1′,2′-dihydrospiro[cyclopropane-1,3′-pyrrolo[3,2-c]pyridin]-6′-yl)acetamide] | 100 to 1000 | ≤ 10 |
| CC(=O)Nc1cc2c(cn1)C1(CC1)CN2c1cc(C)nc(C2CCN(C(C)=O)CC2)n1 [Example 120, N-(1′-(2-(1-acetylpiperidin-4-yl)-6-methylpyrimidin-4-yl)-1′,2′-dihydrospiro[cyclopropane-1,3′-pyrrolo[3,2-c]pyridin]-6′-yl)acetamide] | ≥ 1000 | 100 to 1000 |
| COc1cc(N2CCc3cnc(NC(C)=O)cc32)nc(C(C)(F)F)n1 [Example 34, N-(1-(2-(1,1-difluoroethyl)-6-methoxypyrimidin-4-yl)-2,3-dihydro-1H-pyrrolo[3,2-c]pyridin-6-yl)acetamide] | ≥ 1000 | 10 to 100 |
| CC(=O)Nc1cc2c(cn1)C1(CC1)CN2c1cc(C)cc(N2C[C@H]3CNC[C@H]3C2)n1 [Example 209, N-(1′-(6-((3aR,6aS)-hexahydropyrrolo[3,4-c]pyrrol-2(1H)-yl)-4-methylpyridin-2-yl)-1′,2′-dihydrospiro[cyclopropane-1,3′-pyrrolo[3,2-c]pyridin]-6′-yl)acetamide trifluoroacetate] | ≥ 1000 | 100 to 1000 |
| CO[C@H]1C[C@@H](Nc2cc(N3CC4(CC4)c4cnc(NC(C)=O)cc43)nc(C(C)(F)F)n2)C1 [Example 172, N-(1′-(2-(1,1-difluoroethyl)-6-(((1s,3s)-3-methoxycyclobutyl)amino)pyrimidin-4-yl)-1′,2′-dihydrospiro[cyclopropane-1,3′-pyrrolo[3,2-c]pyridin]-6′-yl)acetamide trifluoroacetate] | 10 to 100 | ≤ 10 |
| CC(=O)Nc1cc2c(cn1)C1(CC1)CN2c1cc(-c2cnn(C)c2C)nc(C(C)(F)F)n1 [Example 240, N-(1′-(2-(1,1-difluoroethyl)-6-(1,5-dimethyl-1H-pyrazol-4-yl)pyrimidin-4-yl)-1′,2′-dihydrospiro[cyclopropane-1,3′-pyrrolo[3,2-c]pyridin]-6′-yl)acetamide trifluoroacetate] | 10 to 100 | ≤ 10 |
| CC(=O)Nc1cc2c(cn1)C1(CC1)CN2c1cc(C)cc(OC2CC(C#N)C2)n1 (stereo not shown) [Example 344, N-(1′-(6-(3-cyanocyclobutoxy)-4-methylpyridin-2-yl)-1′,2′-dihydrospiro[cyclopropane-1,3′-pyrrolo[3,2-c]pyridin]-6′-yl)acetamide trifluoroacetate] | ≥ 1000 | 100 to 1000 |
| COC1CCCN(c2cc(C)cc(N3CC4(CC4)c4cnc(NC(C)=O)cc43)n2)C1 (stereo not shown) [Example 188, N-(1′-(6-(3-methoxypiperidin-1-yl)-4-methylpyridin-2-yl)-1′,2′-dihydrospiro[cyclopropane-1,3′-pyrrolo[3,2-c]pyridin]-6′-yl)acetamide] | ≥ 1000 | 100 to 1000 |
| CC(=O)Nc1cc2c(cn1)C1(CC1)CN2c1cncc(C(C)(F)F)n1 [Example 101, N-(1′-(6-(1,1-difluoroethyl)pyrazin-2-yl)-1′,2′-dihydrospiro[cyclopropane-1,3′-pyrrolo[3,2-c]pyridin]-6′-yl)acetamide] | 100 to 1000 | ≤ 10 |
| CC(=O)Nc1cc2c(cn1)C1(CC1)CN2c1cc(=O)[nH]c(C(C)(F)F)n1 [Example 133, N-(1′-(2-(1,1-difluoroethyl)-6-oxo-1,6-dihydropyrimidin-4-yl)-1′,2′-dihydrospiro[cyclopropane-1,3′-pyrrolo[3,2-c]pyridin]-6′-yl)acetamide] | ≥ 1000 | ≤ 10 |
| CCCCc1nc(C)cc(N2CC3(CC3)c3cnc(NC(C)=O)cc32)n1 [Example 58, N-(1′-(2-butyl-6-methylpyrimidin-4-yl)-1′,2′-dihydrospiro[cyclopropane-1,3′-pyrrolo[3,2-c]pyridin]-6′-yl)acetamide] | ≥ 1000 | 10 to 100 |
| CC(=O)Nc1cc2c(cn1)C1(CC1)CN2c1cc(C)nc(CC2CC2)n1 [Example 62, N-(1′-(2-(cyclopropylmethyl)-6-methylpyrimidin-4-yl)-1′,2′-dihydrospiro[cyclopropane-1,3′-pyrrolo[3,2-c]pyridin]-6′-yl)acetamide] | 100 to 1000 | ≤ 10 |
| CC(=O)Nc1cc2c(cn1)C1(CC1)CN2c1cc(N[C@H]2C[C@@H](F)C2)nc(C(C)(F)F)n1 [Example 168, N-(1′-(2-(1,1-difluoroethyl)-6-(((1s,3s)-3-fluorocyclobutyl)amino)pyrimidin-4-yl)-1′,2′-dihydrospiro[cyclopropane-1,3′-pyrrolo[3,2-c]pyridin]-6′-yl)acetamide trifluoroacetate] | 100 to 1000 | 10 to 100 |
| CC(=O)Nc1cc2c(cn1)C1(CC1)CN2c1cc(C)cc(OC(C)C)n1 [Example 334, N-(1′-(6-isopropoxy-4-methylpyridin-2-yl)-1′,2′-dihydrospiro[cyclopropane-1,3′-pyrrolo[3,2-c]pyridin]-6′-yl)acetamide trifluoroacetate] | ≥ 1000 | 10 to 100 |
| CC(=O)Nc1cc2c(cn1)C1(CC1)CN2c1cc(NCCCF)nc(C(C)(F)F)n1 [Example 164, N-(1′-(2-(1,1-difluoroethyl)-6-((3-fluoropropyl)amino)pyrimidin-4-yl)-1′,2′-dihydrospiro[cyclopropane-1,3′-pyrrolo[3,2-c]pyridin]-6′-yl)acetamide trifluoroacetate] | 10 to 100 | ≤ 10 |
| CC(=O)Nc1cc2c(cn1)C1(CC1)CN2c1cc(C)nc(C(C)(C)C)n1 [Example 55, N-(1′-(2-(tert-butyl)-6-methylpyrimidin-4-yl)-1′,2′-dihydrospiro[cyclopropane-1,3′-pyrrolo[3,2-c]pyridin]-6′-yl)acetamide] | 100 to 1000 | ≤ 10 |
| CC(=O)Nc1cc2c(cn1)C1(CC1)CN2c1cc(C2CCCO2)nc(C(C)(F)F)n1 (stereo not shown) [Example 26, N-(1′-(2-(1,1-difluoroethyl)-6-(tetrahydrofuran-2-y1)pyrimidin-4-yl)-1′,2′-dihydrospiro[cyclopropane-1,3′-pyrrolo[3,2-c]pyridin]-6′-yl)acetamide] | 100 to 1000 | ≤ 10 |
